In series [1] the target is Cytochrome P450 3A5 (Homo sapiens, UniProt P20815). Briefly: Mechanism based inhibition of human cytochrome P450 3A5. Type of series: ADME.
Series [2] addresses T1, Cytochrome P450 3A4 (Homo sapiens, UniProt P08684). Briefly: Mechanism based inhibition of human cytochrome P450 3A4 measured by lovastatin 6'-beta hydroxylase activity. Type of series: ADME.
Series [3] addresses CYP2D6 (Homo sapiens, UniProt P10635). Briefly: (§1) Mechanism based inhibition of human cytochrome P450 2D6 measured by dextromethorphan O-demethylation using human liver microsomes. Type of series: ADME, Microsome. Conditions: human, human liver microsomes, probe dextromethorphan.
Series [4] deals with Cytochrome P450 2D6 (Homo sapiens, UniProt P10635). The description is as §1. Type of series: ADME, Microsome.
Series [5] concerns the target Cytochrome P450 2C9 (Homo sapiens, UniProt P11712). Briefly: Mechanism based inhibition of human cytochrome P450 2C9 measured by diclofenac 4-hydroxylation. Type of series: ADME.
For series [6], the target named is T1, Cytochrome P450 3A4. Nature of the series: Mechanism based inhibition of human cytochrome P450 3A4 measured by testosterone 6-beta hydroxylation. Type of series: ADME.
Series [7] deals with T2, Cytochrome P450 1A1 (Homo sapiens, UniProt P04798).
T2 sequence (P04798 whole entry): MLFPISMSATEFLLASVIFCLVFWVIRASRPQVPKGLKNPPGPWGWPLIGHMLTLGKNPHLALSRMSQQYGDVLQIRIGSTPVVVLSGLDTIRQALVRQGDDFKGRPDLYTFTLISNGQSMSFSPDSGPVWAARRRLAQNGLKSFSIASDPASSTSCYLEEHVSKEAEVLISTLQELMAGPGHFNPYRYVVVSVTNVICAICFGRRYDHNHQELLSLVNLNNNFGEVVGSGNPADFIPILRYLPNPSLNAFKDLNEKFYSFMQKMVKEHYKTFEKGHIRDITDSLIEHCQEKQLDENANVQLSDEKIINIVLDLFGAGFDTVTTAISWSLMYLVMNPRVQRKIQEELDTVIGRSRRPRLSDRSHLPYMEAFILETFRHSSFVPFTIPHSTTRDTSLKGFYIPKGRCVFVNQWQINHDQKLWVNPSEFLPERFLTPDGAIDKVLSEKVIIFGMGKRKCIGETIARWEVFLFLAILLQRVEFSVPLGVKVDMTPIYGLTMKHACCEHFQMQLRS
Briefly: Mechanism based inhibition of human cytochrome P450 1A1 measured by 7-ethoxyresorufin O-deethylation (EROD). Type of series: ADME.

The target in series [8] is T3, Cytochrome P450 1A2 (Homo sapiens, UniProt P05177).
T3 sequence (P05177 whole entry): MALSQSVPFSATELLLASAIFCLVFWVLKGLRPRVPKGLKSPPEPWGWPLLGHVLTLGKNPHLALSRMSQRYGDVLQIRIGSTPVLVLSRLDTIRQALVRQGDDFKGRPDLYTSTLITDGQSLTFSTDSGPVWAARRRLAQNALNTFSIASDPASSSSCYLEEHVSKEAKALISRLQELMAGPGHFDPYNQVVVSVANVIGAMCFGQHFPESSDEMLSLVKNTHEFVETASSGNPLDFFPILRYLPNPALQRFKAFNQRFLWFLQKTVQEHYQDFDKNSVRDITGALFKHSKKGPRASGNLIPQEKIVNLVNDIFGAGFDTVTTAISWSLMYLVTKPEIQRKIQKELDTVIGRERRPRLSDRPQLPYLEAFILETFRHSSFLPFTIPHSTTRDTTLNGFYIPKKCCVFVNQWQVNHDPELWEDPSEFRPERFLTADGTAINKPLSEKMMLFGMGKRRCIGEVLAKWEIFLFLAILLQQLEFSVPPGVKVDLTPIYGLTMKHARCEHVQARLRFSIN
Briefly: Mechanism based inhibition of human cytochrome P450 1A2 measured by 7-ethoxyresorufin O-deethylation (EROD). Type of series: ADME.

The target of series [9] is T4, Cytochrome P450 2E1 (Homo sapiens, UniProt P05181). Nature of the series: (§2) Mechanism based inhibition of human cytochrome P450 2E1. Type of series: ADME.
The target in series [10] is T4, Cytochrome P450 2E1. The series is described as §2. Type of series: ADME. This is another data set of the same source.
The target of series [11] is CYP3A4 (Homo sapiens, UniProt P08684). Nature of the series: (§3) Mechanism based inhibition of human cytochrome P450 3A4. Type of series: ADME. To be noted: human.
Series [12] concerns the target T1, Cytochrome P450 3A4. Described as §3. Type of series: ADME.
Series [13] deals with T5, CYP2B1 (Rattus norvegicus, UniProt P00176).
T5 sequence (P00176 whole entry): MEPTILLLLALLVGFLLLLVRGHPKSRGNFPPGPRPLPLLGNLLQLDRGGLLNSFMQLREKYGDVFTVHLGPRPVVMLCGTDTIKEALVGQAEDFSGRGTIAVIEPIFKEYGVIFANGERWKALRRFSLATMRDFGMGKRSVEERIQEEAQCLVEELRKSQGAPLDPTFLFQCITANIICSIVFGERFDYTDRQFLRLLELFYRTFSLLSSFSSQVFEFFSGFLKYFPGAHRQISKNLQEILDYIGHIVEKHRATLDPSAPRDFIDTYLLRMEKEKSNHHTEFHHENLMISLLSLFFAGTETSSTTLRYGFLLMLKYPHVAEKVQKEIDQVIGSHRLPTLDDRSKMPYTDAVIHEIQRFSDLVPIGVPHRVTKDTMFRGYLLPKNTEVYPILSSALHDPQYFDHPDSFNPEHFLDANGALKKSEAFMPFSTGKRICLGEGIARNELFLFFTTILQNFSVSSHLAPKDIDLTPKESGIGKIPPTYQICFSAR
Briefly: (§4) Mechanism based inhibition of rat cytochrome P450 CYP2B1 measured by 7-EFC O-deethylation activity. Conditions: rat, probe 7-EFC (O-deethylation). Type of series: ADME.

For series [14], the target named is T6, Cytochrome P450 2B1 (Rattus norvegicus, UniProt P00176).
T6 sequence (P00176 whole entry): T5 sequence (P00176 whole entry)
The series is described as §4. Type of series: ADME.

Series [15] has as its target T6, Cytochrome P450 2B1. Briefly: Mechanism based inhibition of rat cytochrome P450 CYP2B1. Type of series: ADME. Conditions: rat.

The structures appear in SMILES notation.

T4 sequence (P05181 whole entry): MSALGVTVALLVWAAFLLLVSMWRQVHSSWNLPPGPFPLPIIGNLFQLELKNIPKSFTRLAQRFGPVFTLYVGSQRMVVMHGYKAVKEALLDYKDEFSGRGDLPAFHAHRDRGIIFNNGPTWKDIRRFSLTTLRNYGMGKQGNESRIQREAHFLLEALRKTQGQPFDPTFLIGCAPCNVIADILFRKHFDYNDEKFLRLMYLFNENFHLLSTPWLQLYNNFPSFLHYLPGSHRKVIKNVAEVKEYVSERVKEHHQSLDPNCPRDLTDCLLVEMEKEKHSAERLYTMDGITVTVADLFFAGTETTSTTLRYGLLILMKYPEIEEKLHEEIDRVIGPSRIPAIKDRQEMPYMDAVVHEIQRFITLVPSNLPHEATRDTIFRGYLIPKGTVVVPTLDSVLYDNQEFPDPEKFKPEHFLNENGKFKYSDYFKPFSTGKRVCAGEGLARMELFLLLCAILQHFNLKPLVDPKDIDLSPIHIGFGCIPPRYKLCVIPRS
T1 sequence (P08684 whole entry): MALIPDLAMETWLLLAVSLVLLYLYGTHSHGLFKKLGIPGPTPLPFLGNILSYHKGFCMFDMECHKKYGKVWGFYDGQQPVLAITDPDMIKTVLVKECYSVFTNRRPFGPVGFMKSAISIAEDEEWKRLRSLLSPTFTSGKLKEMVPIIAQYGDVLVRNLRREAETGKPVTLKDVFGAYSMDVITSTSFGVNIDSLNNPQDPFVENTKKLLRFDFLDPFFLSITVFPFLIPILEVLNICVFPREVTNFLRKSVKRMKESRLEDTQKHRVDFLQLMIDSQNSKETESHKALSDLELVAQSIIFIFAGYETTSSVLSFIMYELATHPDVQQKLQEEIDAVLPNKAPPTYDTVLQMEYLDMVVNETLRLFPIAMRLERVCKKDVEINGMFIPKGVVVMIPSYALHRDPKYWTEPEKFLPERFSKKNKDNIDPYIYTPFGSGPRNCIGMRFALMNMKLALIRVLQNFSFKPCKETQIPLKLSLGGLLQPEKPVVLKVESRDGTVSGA
Sequence of Cytochrome P450 3A5 (P20815 whole entry): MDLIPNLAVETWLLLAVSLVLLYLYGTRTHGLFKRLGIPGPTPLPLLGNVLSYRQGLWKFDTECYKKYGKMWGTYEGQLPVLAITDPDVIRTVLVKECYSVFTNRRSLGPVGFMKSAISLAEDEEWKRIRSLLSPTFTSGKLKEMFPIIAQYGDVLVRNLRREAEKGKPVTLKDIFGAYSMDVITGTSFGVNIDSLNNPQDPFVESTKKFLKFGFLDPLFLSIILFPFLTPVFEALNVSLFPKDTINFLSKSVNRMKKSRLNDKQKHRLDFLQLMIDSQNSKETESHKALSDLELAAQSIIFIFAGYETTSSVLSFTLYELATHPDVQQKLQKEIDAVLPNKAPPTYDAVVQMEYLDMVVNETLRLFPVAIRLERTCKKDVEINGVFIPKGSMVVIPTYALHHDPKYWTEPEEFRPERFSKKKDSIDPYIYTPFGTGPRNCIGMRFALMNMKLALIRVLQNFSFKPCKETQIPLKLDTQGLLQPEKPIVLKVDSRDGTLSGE
Sequence of CYP2D6 (P10635 whole entry): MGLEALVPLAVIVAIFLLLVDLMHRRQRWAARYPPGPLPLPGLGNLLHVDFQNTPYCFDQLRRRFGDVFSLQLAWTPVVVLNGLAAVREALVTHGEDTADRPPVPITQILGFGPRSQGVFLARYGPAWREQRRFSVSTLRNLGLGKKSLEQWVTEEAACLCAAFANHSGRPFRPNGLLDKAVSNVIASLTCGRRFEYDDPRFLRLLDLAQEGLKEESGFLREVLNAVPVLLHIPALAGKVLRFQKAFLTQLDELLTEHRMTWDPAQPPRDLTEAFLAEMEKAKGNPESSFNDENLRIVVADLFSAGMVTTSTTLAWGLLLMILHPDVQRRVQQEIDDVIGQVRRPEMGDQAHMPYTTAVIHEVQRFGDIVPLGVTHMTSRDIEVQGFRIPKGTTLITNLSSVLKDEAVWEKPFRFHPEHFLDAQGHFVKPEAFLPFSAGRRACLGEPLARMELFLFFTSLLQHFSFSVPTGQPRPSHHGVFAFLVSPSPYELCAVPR
Sequence of Cytochrome P450 2D6 (P10635 whole entry): as above
Sequence of Cytochrome P450 2C9 (P11712 whole entry): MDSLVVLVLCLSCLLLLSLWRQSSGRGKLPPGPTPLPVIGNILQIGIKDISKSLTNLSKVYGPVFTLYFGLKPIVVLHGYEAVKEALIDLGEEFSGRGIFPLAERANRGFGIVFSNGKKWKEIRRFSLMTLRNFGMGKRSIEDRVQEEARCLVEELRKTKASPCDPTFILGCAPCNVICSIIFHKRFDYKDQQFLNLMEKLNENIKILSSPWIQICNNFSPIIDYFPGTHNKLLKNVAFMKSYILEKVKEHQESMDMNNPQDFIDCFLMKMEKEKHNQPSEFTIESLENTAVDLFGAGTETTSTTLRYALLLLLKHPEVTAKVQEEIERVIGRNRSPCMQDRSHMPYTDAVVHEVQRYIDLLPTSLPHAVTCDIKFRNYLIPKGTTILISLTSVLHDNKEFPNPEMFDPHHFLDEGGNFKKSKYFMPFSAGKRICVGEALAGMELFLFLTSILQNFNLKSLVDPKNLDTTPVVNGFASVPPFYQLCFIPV
Sequence of CYP3A4 (P08684 whole entry): as the sequence (P08684 whole entry) above

For the compound `CC(C)(C)NC(=O)[C@@H]1C[C@@H]2CCCC[C@@H]2CN1C[C@@H](O)[C@H](Cc1ccccc1)NC(=O)[C@H](CC(N)=O)NC(=O)c1ccc2ccccc2n1`, the mechanism based inhibition result in series [1] is reported as “Cytochrome P450 mechanistic inhibitor: PMID 15523003”. For the compound `O=C(NC(/C=C/S(=O)(=O)c1ccccc1)CCc1ccccc1)C(Cc1ccccc1)NC(=O)N1CCOCC1` (configuration not stated), the mechanism based inhibition entry in series [2] is given as “Cytochrome P450 mechanistic inhibitor: PMID 11038163”. On to `Fc1cnc(N2CCN(CC3=NC(c4ccccc4)=NC3)CC2)nc1`, for which the kinact in [3] is 0.00233 s⁻¹. In addition, the Ki in series [4] stood at 4.8 µM. Consider `CCOC(=O)C1=C(C)N=C(C)/C(=C(/O)OCC)C1CC` (configuration not stated), for which the mechanism based inhibition entry in [5], in series [6], in series [7] and in series [8] was “Cytochrome P450 mechanistic inhibitor: PMID 9107543” each time.

Take `CC(C)(C)NC(=O)[C@@H]1CN(Cc2cccnc2)CCN1C[C@@H](O)C[C@@H](Cc1ccccc1)C(=O)N[C@H]1c2ccccc2C[C@H]1O.O`: the mechanism based inhibition result in series [1] is on record as “Cytochrome P450 mechanistic inhibitor: PMID 15523003”. As for `CCN(CC)C(=S)SSC(=S)N(CC)CC`, the values for the mechanism based inhibition result in [9], in [9] (human) and in series [10] were “Cytochrome P450 mechanistic inhibitor: PMID 1664256”, “Cytochrome P450 mechanistic inhibitor: PMID 10805064” and “Cytochrome P450 mechanistic inhibitor: PMID 9695717”, respectively. As to `CCc1c2c(nc3ccc(O)cc13)-c1cc3c(c(=O)n1C2)COC(=O)[C@]3(O)CC` [7-ETHYL-10-HYDROXYCAMPTOTHECIN], the kinact in series [11] was 0.00167 s⁻¹. In [12], the Ki came out at 26 µM.

On to `C#CCN(C)CCCOc1ccc(Cl)cc1Cl` [CLORGILINE], for which, in series [13], the kinact is 0.00467 s⁻¹. The Ki in series [14] was determined as 1.5 µM. Consider `CC(C)(OO)c1ccccc1` [CUMENE HYDROPEROXIDE], for which the mechanism based inhibition result in series [15] is “Cytochrome P450 mechanistic inhibitor: PMID 8416964”.

As a reminder, the kinact is the maximal first-order rate at which the target is inactivated.

The values are drawn from ChEMBL document CHEMBL1743341, “Cytochrome p450 enzymes mechanism based inhibitors: common sub-structures and reactivity” (Curr Drug Metab, 2005).
